Read-outs that look alike come from different tables or passages of the source.
Experiments:
[1] = tested on: Key Broadleaf Weed and Crop Species; experiment: Post-emergent Test II herbicidal activity (Table 15); format: in vivo; details: post-emergence, 336 h, 14 d; for pest or weed control at 35 g/ha: 35 g ai/ha; for pest or weed control at 70 g/ha: 70 g ai/ha; for pest or weed control at 280 g/ha: 280 g ai/ha
Outline: (§1)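 Visual injury rating (0 = none, 100 = complete kill) taken 14 d after treatment, relative to untreated plants. Compounds in acetone/DMSO with crop oil concentrate and Triton X-155 were track-sprayed at 187 L/ha onto seedlings at the first-second true leaf stage.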

[2] = tested on: Key Grass and Sedge Weeds as well as Grass Crops; experiment: Post-emergent Test II herbicidal activity (Table 16); format: in vivo; details: post-emergence, 336 h, 14 d; for pest or weed control at 35 g/ha: 35 g ai/ha; for pest or weed control at 70 g/ha: 70 g ai/ha; for pest or weed control at 140 g/ha: 140 g ai/ha; for pest or weed control at 280 g/ha: 280 g ai/ha
Outline: as §1

[3] = Abutilon theophrasti, velvetleaf (Abutilon theophrasti), read-out: Visual Growth Reduction (%) 14 Days After Application, ABUTH
[4] = Amaranthus retroflexus, redroot pigweed (Amaranthus retroflexus), read-out: Visual Growth Reduction (%) 14 Days After Application, AMARE
[5] = Brassica napus, oilseed rape, canola (Brassica napus), read-out: Visual Growth Reduction (%) 14 Days After Application, BRSNN
[6] = Chenopodium album, lambsquarters (Chenopodium album), read-out: Visual Growth Reduction (%) 14 Days After Application, CHEAL
[7] = Euphorbia heterophylla, wild poinsettia (Euphorbia heterophylla), read-out: Visual Growth Reduction (%) 14 Days After Application, EPHHL
[8] = Helianthus annuus, sunflower (Helianthus annuus), read-out: Visual Growth Reduction (%) 14 Days After Application, HELAN
[9] = Cyperus esculentus, yellow nutsedge (Cyperus esculentus), read-out: Visual Growth Reduction (%) 14 Days After Application, CYPES
[10] = Echinochloa crus-galli, barnyardgrass (Echinochloa crus-galli), read-out: Visual Growth Reduction (%) 14 Days After Application, ECHCG
[11] = Oryza sativa, rice (Oryza sativa), read-out: Visual Growth Reduction (%) 14 Days After Application, ORYSA
[12] = Setaria faberi, giant foxtail (Setaria faberi), read-out: Visual Growth Reduction (%) 14 Days After Application, SETFA
[13] = Triticum aestivum, wheat, spring (Triticum aestivum), read-out: Visual Growth Reduction (%) 14 Days After Application, TRZAS
[14] = Zea mays, maize, corn (Zea mays), read-out: Visual Growth Reduction (%) 14 Days After Application, ZEAMX

In the case of `COC(=O)c1nc(-c2ccc3sccc3c2)cc(N)c1Cl` [Compound 3.05], the pest or weed control at 35 g/ha [1, 3] is reported as 85 to 94%, the pest or weed control at 70 g/ha [1, 3] is reported as 85 to 94% and the pest or weed control at 280 g/ha [1, 3] is reported as 95 to 100%. It also gave a pest or weed control at 35 g/ha [1, 4] of 30 to 44%, a pest or weed control at 70 g/ha [1, 4] of 45 to 59% and a pest or weed control at 280 g/ha [1, 4] of 85 to 94%. For the same compound, the pest or weed control at 35 g/ha [1, 5] was 0 to 29%, the pest or weed control at 70 g/ha [1, 5] was 0 to 29% and the pest or weed control at 280 g/ha [1, 5] was 0 to 29%. The pest or weed control at 35 g/ha [1, 6] was 75 to 84%, the pest or weed control at 70 g/ha [1, 6] was 85 to 94% and the pest or weed control at 140 g/ha ([1]; Chenopodium album, lambsquarters (Chenopodium album), 140 g ai/ha, read-out: Visual Growth Reduction (%) 14 Days After Application, CHEAL) was 85 to 94%. For the same compound, the pest or weed control at 280 g/ha [1, 6] was 85 to 94%, the pest or weed control at 35 g/ha [1, 7] was 60 to 74% and the pest or weed control at 70 g/ha [1, 7] was 60 to 74%. For the same compound, the pest or weed control at 280 g/ha [1, 7] was 85 to 94%, the pest or weed control at 35 g/ha [1, 8] was 0 to 29% and the pest or weed control at 70 g/ha [1, 8] was 0 to 29%. The pest or weed control at 280 g/ha [1, 8] was 45 to 59%, the pest or weed control at 35 g/ha [2, 9] was 0 to 29% and the pest or weed control at 70 g/ha [2, 9] was 0 to 29%. For the same compound, the pest or weed control at 140 g/ha [2, 9] was 0 to 29%, the pest or weed control at 280 g/ha [2, 9] was 0 to 29% and the pest or weed control at 35 g/ha [2, 10] was 45 to 59%. It also gave a pest or weed control at 70 g/ha [2, 10] of 75 to 84%, a pest or weed control at 140 g/ha [2, 10] of 85 to 94% and a pest or weed control at 280 g/ha [2, 10] of 85 to 94%. For the same compound, the pest or weed control at 35 g/ha [2, 11] was 0 to 29%, the pest or weed control at 70 g/ha [2, 11] was 0 to 29% and the pest or weed control at 140 g/ha [2, 11] was 0 to 29%. The pest or weed control at 280 g/ha [2, 11] was 0 to 29%, the pest or weed control at 35 g/ha [2, 12] was 0 to 29% and the pest or weed control at 70 g/ha [2, 12] was 0 to 29%. For the same compound, the pest or weed control at 140 g/ha [2, 12] was 30 to 44%, the pest or weed control at 280 g/ha [2, 12] was 60 to 74% and the pest or weed control at 35 g/ha [2, 13] was 0 to 29%. For the same compound, the pest or weed control at 70 g/ha [2, 13] was 0 to 29%, the pest or weed control at 140 g/ha [2, 13] was 0 to 29% and the pest or weed control at 280 g/ha [2, 13] was 0 to 29%. For the same compound, the pest or weed control at 35 g/ha [2, 14] was 0 to 29%, the pest or weed control at 70 g/ha [2, 14] was 0 to 29% and the pest or weed control at 140 g/ha [2, 14] was 45 to 59%. The pest or weed control at 280 g/ha [2, 14] was 60 to 74%.
